Patent publication US12486253B2, “Therapeutics for the degradation of mutant BRAF” (C4 THERAPEUTICS, INC., priority 2021, dated 2025)
Read-outs that look alike come from different tables or passages of the source.

What was measured:
Assay type in all cases: cell-based
BRAF V600E [1] = biological target: T1, BRAF V600E (Homo sapiens, UniProt P15056, V600E); test: HiBiT cellular BRAF^V600E degradation assay
BRAF V600E [2] = biological target: T1, BRAF V600E; test: Western blot of engineered HEK-293T cells expressing BRAF V600E; conditions: lentivirus expression
A375 cells = test: Cellular confluence of A375 cells by live cell imaging; conditions: end of the 7-day experiment
phospho-ERK (T202/Y204) = test: HTRF phospho-ERK (T202/Y204) inhibition assay in A375 cells; conditions: Homo sapiens, A-375, 24 hrs, mean of at least n = 3, read-out: pERK IC50
Method: A375 (harboring BRAF homozygous V600E mutation) were purchased from ATCC. DMEM Medium without phenol red and supplemented with L-glutamine was purchased from Corning (Corning, NY, USA). Advanced phospho-ERK (Thr202/Tyr204) HTRF assay kits were purchased from Cisbio (Bedford, MA, USA). Cell culture flasks and 384-well microplates were acquired from VWR (Radnor, PA, USA) or Corning (Corning, NY, USA).
Degradation of activated phospho-ERK (T202/Y204) protein was determined based on quantification of FRET signal using the Advanced phospho-ERK (T202/Y204) HTRF assay kit. Test compounds were added to the 384-well plate from a top concentration of 10 μM with 11 points, half log titration in duplicates. A375 cells were added into 384-well plates at a cell density of 8000 cells per well, respectively. The plates were kept at 37° C. with 5% CO2 for 24 hours. Cells treated in the absence of the test compound were the negative control. Positive control was set by wells containing all reagents but no cells. FRET signal was acquired on EnVision™ Multilabel Reader (PerkinElmer, Santa Clara, CA, USA).

BRAF (wild type) = biological target: T2, BRAF (wild type) (Homo sapiens, UniProt P15056); test: Global proteomics profiling, JURKAT cells; conditions: 300 nM, 24 hours
T2 construct: host or cells: JURKAT
T2 sequence (P15056 whole entry): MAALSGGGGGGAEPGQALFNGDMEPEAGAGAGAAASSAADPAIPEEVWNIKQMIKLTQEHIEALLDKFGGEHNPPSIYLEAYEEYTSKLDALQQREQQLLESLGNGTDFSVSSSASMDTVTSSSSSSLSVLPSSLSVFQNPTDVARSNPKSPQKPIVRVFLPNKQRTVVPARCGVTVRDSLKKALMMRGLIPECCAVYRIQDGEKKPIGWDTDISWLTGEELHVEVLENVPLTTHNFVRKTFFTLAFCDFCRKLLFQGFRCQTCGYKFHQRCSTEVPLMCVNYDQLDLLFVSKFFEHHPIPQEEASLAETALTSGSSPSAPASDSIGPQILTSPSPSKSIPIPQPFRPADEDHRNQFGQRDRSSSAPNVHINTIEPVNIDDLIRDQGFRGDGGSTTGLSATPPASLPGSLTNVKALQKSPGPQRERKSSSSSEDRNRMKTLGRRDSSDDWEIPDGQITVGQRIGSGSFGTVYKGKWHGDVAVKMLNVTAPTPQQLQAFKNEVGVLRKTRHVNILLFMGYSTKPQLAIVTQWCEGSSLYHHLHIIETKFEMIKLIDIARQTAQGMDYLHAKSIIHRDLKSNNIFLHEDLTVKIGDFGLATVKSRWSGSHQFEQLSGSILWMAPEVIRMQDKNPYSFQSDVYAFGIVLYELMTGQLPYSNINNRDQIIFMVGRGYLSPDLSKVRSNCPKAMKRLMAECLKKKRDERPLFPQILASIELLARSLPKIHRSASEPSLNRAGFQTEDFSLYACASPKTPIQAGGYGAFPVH
Method: Each cell line was treated in duplicate with either DMSO or Compound 157 (final concentration 300 nM) for 24 hours in an incubator at 37° C. with 5% CO2. After the 24-hour incubation, cells were harvested, washed twice with PBS, and snap frozen in liquid nitrogen. Samples were re-suspended in lysis buffer [8 M urea, 50 mM HEPES (pH 8.5), 50 mM NaCl, 1× protease inhibitor cocktail] and lysed by sonication at 4° C. with 85% amplitude in a pulse setting with 30 seconds on and 30 seconds off for a total sonication time of 5 minutes. Lysates were centrifuged at maximum speed for 10 minutes at 4° C. and the supernatant collected, reduced for 1 hour at room temperature with 5 mM TCEP, and the cysteine residues were then alkylated with 15 mM iodoacetamide (room temperature, in dark, 30 minutes). Protein content was extracted by methanol-chloroform precipitation and subsequent ice-cold acetone washes. Protein pellets were resuspended in 8 M urea, 50 mM HEPES (pH 8.5) buffer and protein concentrations were measured by BCA assay. […]
For peptide tandem mass tag (TMT) labeling, 100 μg of peptides per sample was prepared at […] concentration in 200 mM HEPES (pH 8.5), 30% acetonitrile (ACN) and each the specific TMT reagent. […] TMT reporter ion intensities were quantified by extracting the signal-to-noise ratio for each. […]

T1 sequence (P15056 whole entry V600E): as the sequence (P15056 whole entry) above, with V600E counted along it

## CCN(C)S(=O)(=O)Nc1ccc(F)c(Oc2ccc3ncn([C@H]4COC5(CCN(C(=O)CC6(O)CCN(c7cc8c(cc7F)c(N7CCC(=O)NC7=O)nn8C)CC6)CC5)C4)c(=O)c3c2)c1C#N [Compound 157, (3R)-3-[6-[2-cyano-3-[[ethyl(methyl)sulfamoyl]amino]-6-fluorophenoxy]-4-oxoquinazolin-3-yl]-8-[2-[1-[3-(2,4-dioxo-1,3-diazinan-1-yl)-5-fluoro-1-methylindazol-6-yl]-4-hydroxypiperidin-4-yl]acetyl]-1-oxa-8-azaspiro[4.5]decane]
BRAF V600E [1]
  BRAF protein degraded: 74%
  HiBit 24 h Emax: 27.48%
BRAF V600E [1]; A-375, read-out: Emax BRAF^V600E degradation
  Emax: 26%
BRAF V600E [1]; read-out: HiBit 24 h Emax
  Emax: ~25%
BRAF V600E [2]
  degradation of BRAF V600E: capable of degrading
A375 cells
  cellular confluence: ~20%
phospho-ERK (T202/Y204)
  IC50: 3.2 nM
BRAF (wild type)
  BRAF protein level change: unchanged
